Measurements: patent US10092565B2, “Treatment of proliferative disorders with a chemiluminescent agent” (Semorex Technologies Ltd., priority 2011, dated 2018)
Where two headings read alike, the source gives them in different places.

Columns and labels:
[1] = tested on: CHRF line acute myeloid leukemia (AML) cells; assay: XTT growth inhibition of CHRF AML cells, 72 hours; assay type: cell-based; settings: for Growth inhibition (%): 80 µM
Experimental: Cells were grown in full culture medium for 24 hours. The medium was then removed and cells were washed with PBS. The PBS was then replaced by fresh medium containing different concentrations of SEM-011 in a range of 50 to 800 μM, or with SEM-011-free medium as a control. […] Growth inhibition was evaluated by calculating the percent decrease in absorbance in SEM-011-treated test cultures as compared to control cultures.

[2] = tested on: PC-3 prostate cancer cells; assay: PC-3 prostate cancer tumors in nu/nu mice, tumor volume / Progression Index; assay type: in vivo
Experimental: Tumor volumes were quantified (in cm^3) at the indicated times by using the formula: tumor volume=(width^2×length)/2. Tumor volume index or Progression Index refers to the ratio of a tumor volume at an indicated time to the first volume measured for that tumor.
Nu/nu nude mice were inoculated on their right flank with 2×10^6 PC-3 prostate cancer cells in a Matrigel mixture. Following inoculation, two mice were treated with escalating concentrations of L-012 (also referred to herein as “SEM-007”) by intraperitoneal injections twice per week, according to the following schedule:
As a control, two mice were inoculated with PC-3 cells without receiving L-012.
The volume of the tumor was then monitored.
The tumor volume was measured periodically beginning on day 25 post-inoculation, and the weight loss over the course of the experiment was also measured.
Each treatment group and each control group consisted of four (and sometimes five) mice.
In another set of experiments, Nu/nu male mice, 1.5-month old, were injected subcutaneously on the right flank with PC-3 cells (2.0×10^6 cells/mouse). On days 4, 8, 12, 15, 19, 36, 42 and […] (after the beginning of treatment), mice were treated with either vehicle (PBS) or 43 mg/Kg L012 by intraperitoneal injections. From the beginning of treatment, tumor dimensions were measured and tumor volume calculated. Progression Index was calculated as the ratio of tumor volume growth at a particular time point to the tumor volume at the initiation of treatment.
(§1) Control animals received an intraperitoneal injection of PBS.
The tumor volume was measured periodically beginning on day 35 post-inoculation.
Nu/nu male mice, 1.5-month old, were injected subcutaneously on the right flank with PC-3 cells (2.0×10^6 cells/mouse). On days 4, 8, 12, 15, 19, 36, 42 and 46 (after beginning of treatment), mice were treated with either vehicle (PBS) or 43 mg/Kg SEM 009, by intravenous injection, as indicated.
From the beginning of treatment, tumor dimensions were measured and tumor volume calculated. Progression Index was calculated as the ratio of tumor volume rowth at a particular time point to the tumor volume at the initiation of treatment.

[3] = for effect on decrease in body weight following inoculation with tumor cells: FIG. 5
Description: FIG. 5 is a bar graph showing the change in body weight of nu/nu mice 28 and 77 days after inoculation with PC-3 cells, following intraperitoneal injection of L-012 once per week (L012 l/w) or twice per week (L012 2/w) during days 35-56 after inoculation, and without L-012 administration (Control);
Nu/nu mice were inoculated with PC-3 cells as described in Example 1, and on day 35 post-inoculation, the animals were divided into three groups.
as §1
A second group received one weekly injection of 41.3 mg/kg L-012 for 3 weeks, i.e., on days 35, 42 and 49 post-inoculation. A third group received two weekly injections of 41.3 mg/kg L-012 for 3 weeks, i.e., on days 35, 36, 42, 47, 49 and 56.

[4] = tested on: PC-3 cells; assay: Alamar Blue growth inhibition of PC-3 cells; assay type: cell-based, human; settings: for IC50: read-out: Est IC50
Experimental: In additional sets of experiments. […] At the end of the culture period, the level of mitochondrial metabolism was measured (using Alamar Blue assay) and the activity of the chemiluminescent agents was determined by percents of growth inhibition; the inhibition of growth in treated cell cultures compared to non-treated, control cells.

[5] = XTT growth inhibition IC50 in a panel of cancer cell lines, 72 hours; assay type: cell-based; settings: span over all tested cell lines, FIG. 7, read-out: IC50 (concentration which resulted in 50% growth inhibition)
Experimental: (§2) The compound SEM-011 was tested for anti-cancer activity, using the PC-3 prostate cancer cell line. Cells were grown in full culture medium for 24 hours. The medium was then removed and cells were washed with PBS. The PBS was then replaced by fresh medium containing different concentrations of SEM-011 in a range of 50 to 800 μM, or with SEM-011-free medium as a control. Cells were then cultured for 24 hours, after which time the level of cellular metabolism in the cultures was measured using a standard XTT (2,3-bis-(2-methoxy-4-nitro-5-sulfophenyl)-2H-tetrazolium-5-carboxanilide) assay. Growth inhibition was evaluated by calculating the percent decrease in absorbance in SEM-011-treated test cultures as compared to control cultures.
(§3) The compounds SEM-007 (also referred to herein and in the art as “L-012”) and SEM-009 (also referred to in the art as “L-002”) were tested for anti-cancer activity using a variety of cell lines. The cell lines used were OvCar-3 ovarian cancer cells, SKOV-3 ovarian cancer cells, HepG2 liver cancer cells, PC-3 prostate cancer cells, and CHRF acute myeloid leukemia cells.

[6] = tested on: OvCar-3 ovarian cancer cells, SKOV-3 ovarian cancer cells, HepG2 liver cancer cells, PC-3 prostate cancer cells, CHRF acute myeloid leukemia cells; assay: as above; assay type: cell-based; settings: all tested cell lines, FIG. 7
Experimental: as §2, §3

[7] = tested on: PC-3 prostate cancer cell line; assay: XTT growth inhibition of PC-3 cells, 24 hours; assay type: cell-based, human
Experimental: as §2

[8] = Homo sapiens, PC-3, 200 uM, 24 hrs
[9] = Homo sapiens, PC-3, 200 uM, 48 hrs
[10] = Homo sapiens, PC-3, 400 uM, 24 hrs
[11] = Homo sapiens, PC-3, 400 uM, 48 hrs
[12] = Homo sapiens, PC-3, 800 uM, 24 hrs
[13] = Homo sapiens, PC-3, 800 uM, 48 hrs
[14] = Homo sapiens, PC-3, 200 uM, 72 hrs
[15] = Homo sapiens, PC-3, 400 uM, 72 hrs
[16] = Homo sapiens, PC-3, 800 uM, 72 hrs

C[n+]1c2ccccc2c(-c2c3ccccc3[n+](C)c3ccccc23)c2ccccc21 [Lucigenin]
Growth inhibition (%) [1]: 33%

Nc1cccc2c(=O)[nH][nH]c(=O)c12 [Luminol]
inhibition at 80 µM ([1]; 72 h, read-out: Growth inhibition (%)): 40%

Nc1c(-c2ccccc2)nc(Cl)c2c(=O)[nH][nH]c(=O)c12 [SEM-007, L-012]
reduction of tumor volume in comparison with the PBS-treated control ([2]; 41.3 mg/kg intraperitoneal on days 25, 28, 32, 35, at day 65, FIG. 3A): 54%
reduction of tumor volume in comparison with the PBS-treated control ([2]; 41.3 mg/kg once per week for 3 weeks, at day 73, FIGS. 4A, 4B): 45%
reduction of tumor volume in comparison with the PBS-treated control ([2]; 41.3 mg/kg twice per week for 3 weeks, at day 73, FIGS. 4A, 4B): 95%
Progression Index compared to non-treated mice ([2]; 43 mg/Kg intraperitoneal, FIG. 3B): sharp increase in the Progression Index
average tumor volume progression after administration ([2]; escalating L-012 41.3, 66.5, 100.4 mg/kg intraperitoneal on days 32, 39, 43, FIG. 2): halted tumor progression, with no increase in average tumor volume
tumor volume reduction (summary of FIGS. 2-4B) ([2]; prostate cancer cells injected into mice, dose dependent): up to 95%
systemic toxicity or morbidity in tumor-bearing mice ([3]; 41.3 mg/kg once or twice per week): does not result in systemic toxicity or morbidity
effect on decrease in body weight following inoculation with tumor cells ([3]; 41.3 mg/kg once per week): partially inhibited the decrease in body weight
effect on decrease in body weight following inoculation with tumor cells ([3]; 41.3 mg/kg twice per week): completely reversed the decrease in body weight
% growth inhibition ([4]; 25 uM, 48 hrs): 27%
% growth inhibition ([4]; 25 uM, 73 hrs): 11%
% growth inhibition ([4]; 50 uM, 24 hrs): 46.46%
% growth inhibition ([4]; 50 uM, 48 hrs): 31%
% growth inhibition ([4]; 50 uM, 73 hrs): 20%
% growth inhibition ([4]; 100 uM, 24 hrs): 65.25%
% growth inhibition ([4]; 100 uM, 48 hrs): 38%
% growth inhibition ([4]; 100 uM, 73 hrs): 38%
% growth inhibition ([4]; 200 uM, 24 hrs): 66.84%
% growth inhibition ([4]; 200 uM, 48 hrs): 58%
% growth inhibition ([4]; 200 uM, 73 hrs): 58.0%
% growth inhibition ([4]; 400 uM, 24 hrs): 77.73%
% growth inhibition ([4]; 400 uM, 48 hrs): 70%
% growth inhibition ([4]; 400 uM, 73 hrs): 76%
% growth inhibition ([4]; 800 uM, 24 hrs): 73.80%
% growth inhibition ([4]; 800 uM, 48 hrs): 78%
% growth inhibition ([4]; 800 uM, 73 hrs): 90%
IC50 ([4]; 48 hrs): 160 µM
IC50 ([4]; 73 hrs): 140 µM

O=c1[nH][nH]c(=O)c2c(O)c(-c3ccccc3)ncc12 [SEM-009, 8-hydroxy-7-phenyl-2,3-dihydropyrido[4,3-d]pyridazine-1,4-dione]
Progression Index compared to non-treated mice ([2]; 43 mg/Kg SEM 009 by intravenous injection, FIG. 9): sharp decrease in the Progression Index
inhibition at 50 µM ([4]; Homo sapiens, PC-3, 50 uM, 24 hrs): -27.2%
inhibition at 50 µM ([4]; Homo sapiens, PC-3, 50 uM, 48 hrs): 26.6%
inhibition at 50 µM ([4]; Homo sapiens, PC-3, 50 uM, 73 hrs): 21.3%
inhibition at 100 µM ([4]; Homo sapiens, PC-3, 100 uM, 24 hrs): 81.4%
inhibition at 100 µM ([4]; Homo sapiens, PC-3, 100 uM, 48 hrs): 49.2%
inhibition at 100 µM ([4]; Homo sapiens, PC-3, 100 uM, 73 hrs): 47.8%
inhibition at 200 µM [4, 8]: 84.2%
inhibition at 200 µM [4, 9]: 80.3%
inhibition at 200 µM ([4]; Homo sapiens, PC-3, 200 uM, 73 hrs): 80.5%
inhibition at 400 µM [4, 10]: 90.6%
inhibition at 400 µM [4, 11]: 83.7%
inhibition at 400 µM ([4]; Homo sapiens, PC-3, 400 uM, 73 hrs): 85.6%
inhibition at 800 µM [4, 12]: 89.1%
inhibition at 800 µM [4, 13]: 85.7%
inhibition at 800 µM ([4]; Homo sapiens, PC-3, 800 uM, 73 hrs): 89%
IC50 ([4]; Homo sapiens, PC-3, 48 hrs): 100 µM
IC50 ([4]; Homo sapiens, PC-3, 73 hrs): 110 µM
IC50 [5]: 40 to 200 µM
IC50 compared with SEM-007 [6]: lower than that of SEM-007 in all of the tested cell lines

NNc1nc(-c2ccccc2)c(O)c2c(=O)[nH][nH]c(=O)c12 [SEM-011, 5-hydrazinyl-8-hydroxy-7-phenyl-2,3-dihydropyrido[4,3-d]pyridazine-1,4-dione]
inhibition at 50 µM ([7]; Homo sapiens, PC-3, 50 μM): 50%
inhibition at 100 µM ([7]; Homo sapiens, PC-3, 100 μM): 87%
inhibition at 200 µM ([7]; Homo sapiens, PC-3, 200 μM): 96%
inhibition at 400 µM ([7]; Homo sapiens, PC-3, 400 μM): 96%
inhibition at 800 µM ([7]; Homo sapiens, PC-3, 800 μM): 96%
PC-3 cell growth inhibition in words ([7]; concentrations of 200 μM or more): almost completely inhibited PC-3 cell growth

O=c1[nH][nH]c(=O)c2c(O)c(-c3ccccc3Cl)ncc12 [SEM-013, 8-hydroxy-7-(2-chlorophenyl)-2,3-dihydropyrido[4,3-d]pyridazine-1,4-dione]
inhibition at 200 µM [4, 8]: 23.8%
inhibition at 200 µM [4, 9]: 22.3%
inhibition at 200 µM [4, 14]: 23.1%
inhibition at 400 µM [4, 10]: 30.1%
inhibition at 400 µM [4, 11]: 29.1%
inhibition at 400 µM [4, 15]: 41.7%
inhibition at 800 µM [4, 12]: 37.1%
inhibition at 800 µM [4, 13]: 55.5%
inhibition at 800 µM [4, 16]: 64.2%

O=c1[nH][nH]c(=O)c2c(O)c(-c3ccc(Cl)cc3)ncc12 [SEM-014, 8-hydroxy-7-(4-chlorophenyl)-2,3-dihydropyrido[4,3-d]pyridazine-1,4-dione]
inhibition at 200 µM [4, 8]: 51.6%
inhibition at 200 µM [4, 9]: 71.9%
inhibition at 200 µM [4, 14]: 68.2%
inhibition at 400 µM [4, 10]: 55.7%
inhibition at 400 µM [4, 11]: 70.5%
inhibition at 400 µM [4, 15]: 72.7%
inhibition at 800 µM [4, 12]: 54.3%
inhibition at 800 µM [4, 13]: 71.3%
inhibition at 800 µM [4, 16]: 76.1%

MCLA
Growth inhibition (%) [1]: 85%
